In the supplement of paper PMC4449167:
± gives the standard deviation of the averaged measurements.

Test system: WB-F344
Test: gap junctional intercellular communication (dye spread) relative to vehicle control (fraction of control); higher = more gap junction communication (less inhibition)
Method: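 Confluent WB-F344 rat liver epithelial cells were pretreated with vehicle, D609 (PC-PLC inhibitor, 50 µM, 20 min), U0126 (MEK1/2 inhibitor, 20 µM, 30 min) or resveratrol (100 µM, 15 min), then exposed to a GJIC-dysregulating chemical at the listed dose and time. GJIC was measured by scalpel loading-dye transfer with Lucifer Yellow (3 min), and the dye-spread area was quantified in ImageJ as a fraction of the vehicle control (FOC). Individual values come from at least 3 independent experiments.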

[1] = pretreatment: D609+GJIC dysreg.
[2] = pretreatment: U0126+GJIC dysreg.

Row | Compound | gap junctional intercellular communication [1] | gap junctional intercellular communication (pretreatment: GJIC dysreg.) | gap junctional intercellular communication (pretreatment: RES+GJIC dysreg.) | gap junctional intercellular communication [2]
1 | Oc1c(Cl)c(Cl)c(Cl)c(Cl)c1Cl [Pentachlorophenol] (compound abbreviation / co-treatment: PCP, exposure (dose, time): 50 µM, 10 min) | 0.335 ± 0.068 | 0.282 ± 0.055 | 0.387 ± 0.14 | 0.336 ± 0.023
2 | c1ccc2c(c1)Cc1ccccc1-2 [Fluoren] (compound abbreviation / co-treatment: Flu, exposure (dose, time): 100 µM, 10 min) | 0.884 ± 0.12 | 0.253 ± 0.034 | 0.848 ± 0.12 | 0.309 ± 0.013
3 | O=C(OOC(=O)c1ccccc1)c1ccccc1 [Benzoylperoxide] (compound abbreviation / co-treatment: BzOOH, exposure (dose, time): 200 µM, 15 min) | 0.373 ± 0.057 | 0.368 ± 0.085 | 0.313 ± 0.084 | 0.33 ± 0.14
4 | Clc1cc(Cl)c(-c2cc(Cl)c(Cl)cc2Cl)cc1Cl [2,2',4,4',5,5'-Hexachlorobiphenyl] (compound abbreviation / co-treatment: PCB 153, exposure (dose, time): 50 µM, 30 min) | 0.781 ± 0.17 | 0.353 ± 0.093 | 0.857 ± 0.11 | 0.278 ± 0.083
